Experimental data published in ChEMBL document CHEMBL1201862, “PubChem BioAssay data set” (2004).
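48-hour exposure; five concentrations; linearly interpolated endpoints. At the GI50, growth is halved.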 Active and inactive are the calls of the source. Cut-off read from the data, not from the text of the source: active = GI50 up to about 1.1 µM and inactive = higher.

Assays:
Assay in all cases: NCI tumour cell line growth inhibition, 48 h
[1] = tested on: DLD-1
[2] = tested on: RXF 393
[3] = tested on: SNB-75
[4] = tested on: SF-539
[5] = tested on: NCI-H522
[6] = tested on: NCI/ADR-RES
[7] = tested on: KM-20L2
[8] = tested on: SK-OV-3
[9] = tested on: HOP-62
[10] = tested on: OVCAR-4
[11] = tested on: CAKI-1
[12] = tested on: LOX IMVI
[13] = tested on: XF498
[14] = tested on: M14
[15] = tested on: TK-10

Structure (SMILES) | GI50 [1] | GI50 [2] | GI50 [3] | GI50 [4] | GI50 [5] | GI50 [6] | GI50 [7] | GI50 [8] | GI50 [9] | GI50 [10] | GI50 [11] | GI50 [12] | GI50 [13] | GI50 [14] | GI50 [15]
CCCCCCCCCCCC1=C(O)C(=O)C=C(O)C1=O [EMBELIN] | 8.49 µM (inactive) | 12.9 µM (inactive) | 6.31 µM (inactive) | 6.76 µM (inactive) | 8.95 µM (inactive) | 6.27 µM (inactive) | 7.43 µM (inactive) | 8.43 µM (inactive) | 5.56 µM (inactive) | 10 µM (inactive) | 4.26 µM (inactive) | 7.35 µM (inactive) |  |  | 
C#CC[C@@]12CC(=O)C[C@@H]1CCC1(C2)OCCO1.C#CC[C@]12CC(=O)CC[C@H]1CC(=O)C2 | > 100 µM (inactive) | > 100 µM (inactive) | 97.7 µM (inactive) | > 100 µM (inactive) | > 100 µM (inactive) | > 100 µM (inactive) | > 100 µM (inactive) | > 100 µM (inactive) | > 100 µM (inactive) | > 100 µM (inactive) |  | > 100 µM (inactive) | > 100 µM (inactive) |  | 
CC1C[C@]2(C[C@@H](C)C(=O)O2)OC2CC3(C)C4CCC5C(C)(C)OC(=O)CC[C@@]56C[C@@]46CC[C@]3(C)C12 (stereo not given in full) | > 100 µM (inactive) | > 100 µM (inactive) | > 100 µM (inactive) | > 100 µM (inactive) |  |  |  |  |  | > 100 µM (inactive) | > 100 µM (inactive) | > 100 µM (inactive) | > 100 µM (inactive) | > 100 µM (inactive) | > 100 µM (inactive)
CSc1nc2c(ncn2C2OCC(O)C(O)C2O)c(=O)n1C (stereo not given) | > 100 µM (inactive) | > 100 µM (inactive) | 73.6 µM (inactive) | > 100 µM (inactive) | > 100 µM (inactive) | > 100 µM (inactive) | > 100 µM (inactive) | > 100 µM (inactive) | > 100 µM (inactive) | > 100 µM (inactive) |  | > 100 µM (inactive) | > 100 µM (inactive) |  | 
Nc1nn(CC(O)CO)c(=O)s1 (stereo not given) | > 100 µM (inactive) | > 100 µM (inactive) | 64.6 µM (inactive) | > 100 µM (inactive) |  |  | > 100 µM (inactive) | > 100 µM (inactive) | > 100 µM (inactive) | > 100 µM (inactive) |  | > 100 µM (inactive) | > 100 µM (inactive) | > 100 µM (inactive) | > 100 µM (inactive)
COc1ccc(Sc2ccccc2N)cc1 | 43.5 µM (inactive) | 25.5 µM (inactive) | 19.6 µM (inactive) | 29.6 µM (inactive) |  |  | 52.6 µM (inactive) | > 100 µM (inactive) | 65.9 µM (inactive) | 34.8 µM (inactive) |  | 64 µM (inactive) | 0.162 µM (active) | 35.8 µM (inactive) | > 100 µM (inactive)
COC(=O)C1CCC(=O)N1/C(C)=N/NC(=O)Nc1ccc(Cl)c(Cl)c1 (stereo not given) | > 100 µM (inactive) | > 100 µM (inactive) | 65.3 µM (inactive) | > 100 µM (inactive) |  |  | 32.2 µM (inactive) | 43.4 µM (inactive) | > 100 µM (inactive) | > 100 µM (inactive) | 74.6 µM (inactive) | 31.5 µM (inactive) | > 100 µM (inactive) | > 100 µM (inactive) | 88.1 µM (inactive)
NC(=O)C1(c2ccccc2)Nc2ccccc2S1 (stereo not given) | > 100 µM (inactive) | > 100 µM (inactive) |  | > 100 µM (inactive) | > 100 µM (inactive) |  | > 100 µM (inactive) | > 100 µM (inactive) | > 100 µM (inactive) | > 10 µM (inactive) | > 100 µM (inactive) | > 100 µM (inactive) | > 100 µM (inactive) | > 100 µM (inactive) | > 100 µM (inactive)
COc1cc(/C=C/C2=C(C#N)C(=O)OC2(C)C)ccc1O | 54 µM (inactive) | 36.9 µM (inactive) | 82.8 µM (inactive) |  | 16.7 µM (inactive) |  | 58.5 µM (inactive) | > 100 µM (inactive) | 43.6 µM (inactive) |  | > 100 µM (inactive) | 20.7 µM (inactive) |  |  | > 100 µM (inactive)
O=C1C2Cc3ccccc3CN2C(=O)N1CN1CCCCC1 (stereo not given) | > 100 µM (inactive) |  |  | > 100 µM (inactive) | > 100 µM (inactive) |  | > 100 µM (inactive) |  | > 100 µM (inactive) | > 100 µM (inactive) | > 100 µM (inactive) | > 100 µM (inactive) | > 100 µM (inactive) | > 100 µM (inactive) | > 100 µM (inactive)
N#C/C(=C\c1cccc(O)c1O)C(N)=O | 45.4 µM (inactive) | 3.22 µM (inactive) | 9.57 µM (inactive) | 34 µM (inactive) | 21 µM (inactive) |  | 52.5 µM (inactive) | 28.8 µM (inactive) | 68.9 µM (inactive) | 62.4 µM (inactive) | 41.3 µM (inactive) |  | 31.4 µM (inactive) | 67.1 µM (inactive) | 42.1 µM (inactive)
